Experimental data taken from the NIST ThermoML archive (doi:10.1021/je8004134).
“And” between values parts separate entries of the source, which are not always exact repeats. Equal values may be shown once.

How the values were obtained:
[1] = 298.15 K, 101 kPa, Liquid; for speed of sound: Sing-around technique in a fixed-path interferometer; for mass density: Vibrating tube method
[2] = an = ratio of the nth substance listed, in mol/kg; settings: 298.15 K, 101 kPa, Liquid; for speed of sound: Sing-around technique in a fixed-path interferometer; for mass density: Vibrating tube method

C[S+](C)[O-] [dimethyl sulfoxide]
[1]
Settings	mass density	speed of sound [m/s]
–	1095.19 kg/m3 and 1095.2 kg/m3 and 1095.19 kg/m3	1484.1

CC(=O)N(C)C [N,N-dimethylethanamide]
[1]
Settings	mass density	speed of sound [m/s]
–	936.22 kg/m3 [middle of 9 runs]	1455.4

[O-][Cl+3]([O-])([O-])[O-].[O-][Cl+3]([O-])([O-])[O-].[Zn+2] [zinc perchlorate] + CC(=O)N(C)C
[2]
Settings	mass density [kg/m3]	speed of sound [m/s]
a1 = 0.04286	945.119	1460.8
a1 = 0.08313	954.115	1464.9
a1 = 0.1231	963.055	1469
a1 = 0.1625	971.852	1473.2
a1 = 0.2013	980.513	1477.5
a1 = 0.2396	989.07	1481.9
a1 = 0.2771	997.457	1486.3
a1 = 0.3148	1005.87	1490.8

[Cl][Ni][Cl] [nickel chloride (NiCl2)] + CC(=O)N(C)C
[2]
Settings	mass density [kg/m3]	speed of sound [m/s]
a1 = 0.019	938.196	1457
a1 = 0.03382	939.871	1458
a1 = 0.05743	942.54	1459.5
a1 = 0.07634	944.678	1460.8
a1 = 0.09563	946.859	1462
a1 = 0.114	948.937	1463.3
a1 = 0.1327	951.046	1464.5
a1 = 0.1513	953.148	1465.8

CC(=O)N(C)C [N,N-dimethylethanamide] + [Cl-].[Cl-].[Zn+2]
[2], a2 = 0
Settings	mass density [kg/m3]	speed of sound [m/s]
–	936.22	1455.4

C[S+](C)[O-] [dimethyl sulfoxide] + [Cl][Mn][Cl]
[2], a2 = 0
Settings	mass density [kg/m3]	speed of sound [m/s]
–	1095.19	1484.1

[Cl-].[Cl-].[Zn+2] [zinc chloride] + CC(=O)N(C)C
[2]
Settings	mass density [kg/m3]	speed of sound [m/s]
a1 = 0.05996	942.244	1456.9
a1 = 0.1117	947.615	1457.9
a1 = 0.1487	951.455	1458.7
a1 = 0.1875	955.473	1459.5
a1 = 0.223	959.152	1460.3
a1 = 0.2595	962.944	1461.2
a1 = 0.2955	966.681	1462.1
a1 = 0.3148	968.679	1462.5

[Cl][Cu][Cl] [copper chloride] + CC(=O)N(C)C
[2]
Settings	mass density [kg/m3]	speed of sound [m/s]
a1 = 0.04793	941.347	1456.2
a1 = 0.09502	946.26	1457.1
a1 = 0.139	950.849	1458
a1 = 0.1852	955.662	1458.9
a1 = 0.2306	960.406	1459.9
a1 = 0.2755	965.086	1460.9
a1 = 0.3194	969.661	1461.9
a1 = 0.364	974.319	1462.9

[Cu+2].[O-][Cl+3]([O-])([O-])[O-].[O-][Cl+3]([O-])([O-])[O-] [copper perchlorate] + C[S+](C)[O-]
[2]
Settings	mass density [kg/m3]	speed of sound [m/s]
a1 = 0.01425	1098.31	1485
a1 = 0.02779	1101.26	1485.9
a1 = 0.0419	1104.35	1486.8
a1 = 0.05636	1107.54	1487.7
a1 = 0.07067	1110.7	1488.7
a1 = 0.08366	1113.58	1489.5
a1 = 0.09783	1116.73	1490.4
a1 = 0.1114	1119.78	1491.4
a1 = 0.1251	1122.85	1492.2
a1 = 0.1384	1125.85	1493.3
